Data on 13 compounds can be found in US10919896B2, “Preparation and uses of pyrimidinone derivatives” (Cancer Research Technology Limited, priority 2016, dated 2021).

The assay has as its system Cdc7 (pS40MCM2 levels in HCT116 cells). The assay is described as follows: Cdc7 Cell Pharmacodynamics Assay Method 2A: pS40MCM2 levels in HCT116 cells, 6 hours. Particulars: Homo sapiens, HCT-116, read-out: Biomarker Method 2A (pEC50) (converted). The class given is cell-based. Summed up: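 HCT116 cells seeded at 20,000/well, settled overnight, then treated with compound (1:400 dilution from compound plate) for 6 h (Method 2A) or 18 h (Method 2B) at 37° C. Lysates captured on total-MCM2 antibody plates; pS40 MCM2 detected with rabbit anti-pMCM2 Ser40, HRP secondary and chemiluminescent substrate.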

Structures can show the parent of a compound that is named as a salt.

Turning to `C[C@H]1CN(c2nc(-c3ccncc3)[nH]c(=O)c2Cl)CCN1` [Compound 130], the EC50 is 776 nM.
To `O=c1[nH]c(-c2ccncc2)nc(N2CCN[C@H](C(F)(F)F)C2)c1Cl` [Compound 139] belongs 851 nM.
In the case of `O=c1[nH]c(-c2ccncc2)nc(N2CCN(CC(F)F)CC2)c1Cl` [Compound 147], the EC50 is 427 nM.
The same measure for `CC(C)[C@H]1CN(c2nc(-c3ccnc(F)c3)[nH]c(=O)c2Cl)CCN1` [Compound 170]: 21.9 nM; for `O=c1[nH]c(-c2ccncc2)nc(N2CCN[C@@H](C(F)(F)F)C2)c1Cl` [Compound 180]: 37.2 nM; for `CC(C)(C)[C@H]1CN(c2nc(-c3ccncc3)[nH]c(=O)c2F)CCN1` [Compound 185]: 85.1 nM.
On to `O=c1[nH]c(-c2ccnc(F)c2)nc(N2CCNCC(F)(F)C2)c1Cl` [Compound 312, 5-chloro-4-(6,6-difluoro-1,4-diazepan-1-yl)-2-(2-fluoro-4-pyridyl)-1H-pyrimidin-6-one hydrochloride], for which the EC50 was 11.5 nM.
On to `O=c1[nH]c(-c2ccnc(F)c2)nc(N2CCOCC2)c1Cl` [Compound 316], for which the EC50 was 44.7 nM.
Turning to `N[C@H]1CCCN(c2nc(-c3ccnc(F)c3)[nH]c(=O)c2Cl)C1` [Compound 317], the EC50 was 219 nM.
The same measure for `N[C@@H]1CCCN(c2nc(-c3ccnc(F)c3)[nH]c(=O)c2Cl)C1` [Compound 319]: 126 nM; for `C[C@@H]1CNCCN1c1nc(-c2ccnc(F)c2)[nH]c(=O)c1Cl` [Compound 323]: 12 nM; for `O=c1[nH]c(-c2ccnc(F)c2)nc(N2CCNCC2)c1Cl` [Compound 360]: 83.2 nM.
To `C[C@@H]1CNCCN1c1nc(-c2ccncc2)[nH]c(=O)c1Cl` [Compound 364] belongs 26.9 nM.
